# In patent US20190077795A1, “ARGININE […] INHIBITORS AND USES THEREOF” (Epizyme, Inc., priority 2014, published 2019):
# Like-named read-outs stand apart in the source and are kept apart here.
# Tests used:
# [1] = system: mono-methyl arginine in RKO cells; experiment: RKO Methylation Assay, In Cell Western (ICW); format: cell-based; details: 72 hours
# Source text: RKO adherent cells were purchased from ATCC (American Type Culture Collection), Manassas, Va., USA. DMEM/Glutamax medium, penicillin-streptomycin, heat inactivated fetal bovine serum, 0.05% trypsin and D-PBS were purchased from Life Technologies, Grand Island, N.Y., USA. Odyssey blocking buffer, 800CW goat anti-rabbit IgG (H+L) antibody, and Licor Odyssey infrared scanner were purchased from Licor Biosciences, Lincoln, Nebr., USA. Mono-methyl arginine antibody was purchased from Cell Signaling Technology, Danvers, Mass., USA. Methanol was purchased from VWR, Franklin, Mass., USA. 10% Tween 20 was purchased from KPL, Inc., Gaithersburg, Md., USA. DRAQ5 was purchased from Biostatus Limited, Leicestershire, UK.
# RKO adherent cells were maintained in growth medium (DMEM/Glutamax medium supplemented with 10% v/v heat inactivated fetal bovine serum and 100 units/mL penicillin-streptomycin) and cultured at 37° C. under 5% CO2.
# Cell treatment, In Cell Western (ICW) for detection of mono-methyl arginine and DNA content.
# Compound (100 nL) from a 96-well source plate was added directly to 384 well cell plate. Plates were incubated at 37° C., 5% CO2 for 72 hours. After three days of incubation, plates were brought to room temperature outside of the incubator for ten minutes and blotted on paper towels to remove cell media. 50 μL of ice cold 100% methanol was added directly to each well and incubated for 30 min at room temperature. After 30 min, plates were transferred to a Biotek EL406 plate washer and washed 2 times with 100 μL per well of wash buffer (1×PBS). Next 60 μL per well of Odyssey blocking buffer (Odyssey Buffer with 0.1% Tween 20 (v/v)) were added to each plate and incubated 1 hour at room temperature. Blocking buffer was removed and 20 μL per well of primary antibody was added (mono-methyl arginine diluted 1:200 in Odyssey buffer with 0.1% Tween 20 (v/v)) and plates were incubated overnight (16 hours) at 4° C. Plates were washed 5 times with 100 μL per well of wash buffer. […] The plates were washed 5 times with 100 μL per well wash buffer then 2 times with 100 μL per well of water. Plates were allowed to dry at room temperature then imaged on the Licor Odyssey machine which measures integrated intensity at 700 nm and 800 nm wavelengths. Both 700 and 800 channels were scanned.
# First, the ratio for each well was determined by:
# Each plate included fourteen control wells of DMSO only treatment (minimum activation) as well as fourteen control wells for maximum activation treated with 20 μM of a reference compound. The average of the ratio values for each control type was calculated and used to determine the percent activation for each test well in the plate. Reference compound was serially diluted three-fold in DMSO for a total of nine test concentrations, beginning at 20 μM. Percent activation was determined and EC30 curves were generated using triplicate wells per concentration of compound.
# human PRMT8 = human PRMT8 (Homo sapiens, UniProt Q9NR22); experiment: PRMT8 Biochemical Assay; details: peptide substrate, 3H-SAM Flashplate assay
# Sequence of human PRMT8 (Q9NR22 whole entry): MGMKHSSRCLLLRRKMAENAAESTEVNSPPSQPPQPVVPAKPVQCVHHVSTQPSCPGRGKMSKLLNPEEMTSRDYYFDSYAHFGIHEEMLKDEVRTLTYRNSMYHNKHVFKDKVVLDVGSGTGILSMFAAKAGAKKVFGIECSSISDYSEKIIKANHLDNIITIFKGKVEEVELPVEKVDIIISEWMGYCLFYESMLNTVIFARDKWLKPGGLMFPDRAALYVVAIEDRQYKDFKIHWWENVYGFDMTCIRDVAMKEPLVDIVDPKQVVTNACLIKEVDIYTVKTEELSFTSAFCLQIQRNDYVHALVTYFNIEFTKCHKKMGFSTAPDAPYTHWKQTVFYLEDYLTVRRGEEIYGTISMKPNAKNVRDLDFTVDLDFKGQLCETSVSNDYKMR
# Source text: S-adenosylmethionine (SAM), S-adenosylhomocysteine (SAH), bicine, Tween20, dimethylsulfoxide (DMSO), bovine skin gelatin (BSG), isopropyl-3-D-thiogalactopyranoside (IPTG), and Tris(2-carboxyethyl)phosphine hydrochloride solution (TCEP) were purchased from Sigma-Aldrich at the highest level of purity possible. ^3H-SAM was purchase from American Radiolabeled Chemicals with a specific activity of 80 Ci/mmol. 384-well streptavidin Flashplates were purchased from PerkinElmer.
# E. coli (BL21(DE3) Gold, Stratagene) made competent by the CaCl2 method were transformed with the PRMT8 construct and ampicillin selection. Protein over-expression was accomplished by growing the PRMT8 expressing E. coli clone and inducing expression with 0.3 mM IPTG at 16° C. The culture was grown for 12 hours, harvested by centrifugation, and stored at −80° C. for purification.
# GST-tagged PRMT8 was eluted with 50 mM Tris, 2 mM glutathione, pH 7.8. Pooled fractions were cleaved by thrombin (10U) and dialysed in buffer A. GST was removed by reloading the cleaved protein sample onto glutathione sepharose column and PRMT8 was collected in the flow-through fractions. PRMT8 was purified further by ceramic hydroxyapatite chromatography. The column was washed with 50 mM phosphate buffer, 100 mM NaCl, 5% glycerol, 5 mM β-mercaptoethanol, pH 7.8 and PRMT8 was eluted by 100 mM phosphate in the same buffer. Protein was concentrated and buffer was exchanged to 50 mM Tris, 300 mM NaCl, 10% glycerol, 5 mM β-mercaptoethanol, pH 7.8 by ultrafiltration.
# General Procedure for PRMT8 Enzyme Assays on Peptide Substrates.
# The assays were all performed in a buffer consisting of 20 mM Bicine (pH=7.6), 1 mM TCEP, 0.005% BSG, and 0.002% Tween 20, prepared on the day of use. […] DMSO (1 ul) was added to Columns 11, 12, 23, 24, rows A-H for the maximum signal control and 1 ul of SAH, a known product and inhibitor of PRMT8, was added to columns 11, 12, 23, 24, rows I-P for the minimum signal control. A cocktail (40 ul) containing the PRMT8 enzyme was added by Multidrop Combi (Thermo-Fisher). The compounds were allowed to incubate with PRMT8 for 30 min at room temperature, then a cocktail (10 ul) containing ^3H-SAM and peptide was added to initiate the reaction (final volume=51 ul). […] The assays were stopped by the addition of non-radiolabeled SAM (10 ul) to a final concentration of 400 uM, which dilutes the ^3H-SAM to a level where its incorporation into the peptide substrate is no longer detectable. 50 ul of the reaction in the 384-well polypropylene plate was then transferred to a 384-well Flashplate and the biotinylated peptides were allowed to bind to the streptavidin surface for at least 1 hour before being washed once with 0.1% Tween20 in a Biotek ELx405 plate washer. The plates were then read in a PerkinElmer TopCount plate reader to measure the quantity of ^3H-labeled peptide bound to the Flashplate surface, measured as disintegrations per minute (dpm) or alternatively, referred to as counts per minute (cpm).
# human PRMT1 = molecular target: T1, human PRMT1 (Homo sapiens, UniProt Q99873); experiment: PRMT1 Biochemical Assay; details: peptide substrate, 3H-SAM Flashplate assay
# T1 construct: GST-tagged PRMT1; made in house; host or cells: High Five insect cells (baculovirus, pFastBac1)
# T1 sequence (Q99873 with tags, fused parts or gaps): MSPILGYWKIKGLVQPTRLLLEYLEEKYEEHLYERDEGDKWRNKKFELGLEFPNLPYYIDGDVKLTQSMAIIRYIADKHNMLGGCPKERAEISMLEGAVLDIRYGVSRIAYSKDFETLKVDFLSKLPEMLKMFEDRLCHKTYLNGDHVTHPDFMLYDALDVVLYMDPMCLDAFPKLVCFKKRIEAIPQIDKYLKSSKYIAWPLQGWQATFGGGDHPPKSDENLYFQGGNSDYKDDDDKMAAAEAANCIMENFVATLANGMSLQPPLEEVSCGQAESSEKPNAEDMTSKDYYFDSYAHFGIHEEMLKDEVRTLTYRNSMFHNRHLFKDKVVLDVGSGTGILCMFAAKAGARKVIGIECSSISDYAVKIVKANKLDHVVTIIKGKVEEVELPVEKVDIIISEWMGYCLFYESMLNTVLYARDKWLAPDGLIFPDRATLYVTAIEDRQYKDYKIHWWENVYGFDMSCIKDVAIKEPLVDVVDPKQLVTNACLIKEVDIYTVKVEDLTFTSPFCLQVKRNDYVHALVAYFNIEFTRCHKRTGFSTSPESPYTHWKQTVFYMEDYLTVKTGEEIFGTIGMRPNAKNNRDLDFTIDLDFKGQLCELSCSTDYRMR
# Source text: (§1) S-adenosylmethionine (SAM), S-adenosylhomocysteine (SAH), bicine, Tween20, dimethylsulfoxide (DMSO), bovine skin gelatin (BSG), and Tris(2-carboxyethyl)phosphine hydrochloride solution (TCEP) were purchased from Sigma-Aldrich at the highest level of purity possible. ^3H-SAM was purchase from American Radiolabeled Chemicals with a specific activity of 80 Ci/mmol. 384-well streptavidin Flashplates were purchased from PerkinElmer.
# Recombinant baculovirus were generated according to Bac-to-Bac kit instructions (Life Technologies). […] Infections were carried out at 27° C. for 48 hours, harvested by centrifugation, and stored at −80° C. for purification.
# GST-tagged PRMT1 was eluted with 50 mM Tris, 2 mM glutathione, pH 7.8, dialysed in buffer A and concentrated to 1 mg/mL.
# General Procedure for PRMT1 Enzyme Assays on Peptide Substrates.
# (§2) The assays were all performed in a buffer consisting of 20 mM Bicine (pH=7.6), 1 mM TCEP, 0.005% BSG, and 0.002% Tween 20, prepared on the day of use. […] DMSO (1 ul) was added to Columns 11, 12, 23, 24, rows A-H for the maximum signal control and 1 ul of SAH, a known product and inhibitor of PRMT1, was added to columns 11, 12, 23, 24, rows I-P for the minimum signal control. A cocktail (40 ul) containing the PRMT1 enzyme was added by Multidrop Combi (Thermo-Fisher). The compounds were allowed to incubate with PRMT1 for 30 min at room temperature, then a cocktail (10 ul) containing SAM and peptide was added to initiate the reaction (final volume=51 ul). […] The assays were stopped by the addition of non-radiolabeled SAM (10 ul) to a final concentration of 300 uM, which dilutes the ^3H-SAM to a level where its incorporation into the peptide substrate is no longer detectable. 50 ul of the reaction in the 384-well polypropylene plate was then transferred to a 384-well Flashplate and the biotinylated peptides were allowed to bind to the streptavidin surface for at least 1 hour before being washed once with 0.1% Tween20 in a Biotek ELx405 plate washer. The plates were then read in a PerkinElmer TopCount plate reader to measure the quantity of ^3H-labeled peptide bound to the Flashplate surface, measured as disintegrations per minute (dpm) or alternatively, referred to as counts per minute (cpm).
# (§3) Where dpm=disintegrations per minute, cmpd=signal in assay well, and min and max are the respective minimum and maximum signal controls.
# (§4) Where top and bottom are the normally allowed to float, but may be fixed at 100 or 0 respectively in a 3-parameter fit. The Hill Coefficient normally allowed to float but may also be fixed at 1 in a 3-parameter fit. Y is the % inhibition and X is the compound concentration.
# human PRMT6 = molecular target: T2, human PRMT6 (Homo sapiens, UniProt Q96LA8); experiment: PRMT6 Biochemical Assay
# T2 construct: Flag-PRMT6-His; made in house; host or cells: HEK 293F cells (BacMam baculovirus, pFastBacMam)
# T2 sequence (Q96LA8 with tags, fused parts or gaps): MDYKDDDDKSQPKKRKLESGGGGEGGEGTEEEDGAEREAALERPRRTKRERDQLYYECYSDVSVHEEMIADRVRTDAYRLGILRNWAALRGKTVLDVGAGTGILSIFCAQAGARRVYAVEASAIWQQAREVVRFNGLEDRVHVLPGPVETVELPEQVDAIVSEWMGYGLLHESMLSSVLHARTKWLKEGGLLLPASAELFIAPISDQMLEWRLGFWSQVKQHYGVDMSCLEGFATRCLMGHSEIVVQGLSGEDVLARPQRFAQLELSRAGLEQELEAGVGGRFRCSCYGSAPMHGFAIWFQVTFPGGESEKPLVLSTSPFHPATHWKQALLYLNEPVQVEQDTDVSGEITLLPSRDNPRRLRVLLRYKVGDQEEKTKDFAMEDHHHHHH
# Source text: as §1, with “(BSG), sodium butyrate” for “(BSG),”
# Peptide representative of human histone H4 residues 36-50 was synthesized with an N-terminal linker-affinity tag motif and a C-terminal amide cap by 21st Century Biochemicals.
# The amplified gene was subcloned into pFastBacMam (Viva Biotech).
# Recombinant baculovirus were generated according to Bac-to-Bac kit instructions (Life Technologies). […] Infections were carried out at 37° C. for 48 hours, harvested by centrifugation, and stored at −80° C. for purification.
# Column was washed with 20 mM imidazole in the same buffer and Flag-PRMT6-His was eluted with 150 mM imidazole. Pooled fractions were dialysed against buffer Ni-A and further purified by anti-flag M2 affinity chromatography. Flag-PRMT6-His was eluted with 200 ug/ml FLAG peptide in the same buffer. Pooled fractions were dialysed in 20 mM Tris, 150 mM NaCl, 10% glycerol and 5 mM β-mercaptoethanol, pH 7.8.
# General Procedure for PRMT6 Enzyme Assays on Peptide Substrates.
# as §2, with “PRMT6,” for “PRMT1,”, “PRMT6” for “PRMT1”, “400” for “300”
# as §3, §4
# [2] = peptide substrate, 3H-SAM Flashplate assay, read-out: PRMT6 IC50
IC50 (human PRMT8; PRMT8 IC50 (uM)),IC50 (human PRMT1; read-out: PRMT1 IC50),IC50 (human PRMT6; [2]),SMILES,ICW EC30 [1],other results
0.0218 µM,0.00361 µM,0.012 µM,CNCCN(C)Cc1c[nH]nc1-c1cc(Cl)c(OCC2CCC2)c(Cl)c1 [Compound 2],304 nM,
0.0219 µM,0.00398 µM,0.0195 µM,CNCCN(C)Cc1c[nH]nc1-c1cc(F)c(OCC2CC2)c(C(F)(F)F)c1 [Compound 3],664 nM,
0.0122 µM,0.00458 µM,0.00685 µM,CNCCN(C)Cc1c[nH]nc1-c1cc(F)c(OCC2CCC2)c(C(F)(F)F)c1 [Compound 5],468 nM,
0.0261 µM,0.00531 µM,0.285 µM,CNCCN(C)Cc1c[nH]nc1-c1cc(OCCCC(C)C)cc(C(F)(F)F)c1 [Compound 13],,
0.0245 µM,,0.0677 µM,CNCCN(C)Cc1c[nH]nc1-c1ccc(CC(C)C)c(C(F)(F)F)c1 [Compound 50],,IC50 (human PRMT1; PRMT1 IC50 (uM)): 0.0105 µM
0.026 µM,0.0107 µM,0.0206 µM,CNCCN(C)Cc1c[nH]nc1-c1ccc(NC(C)c2cccnc2)nc1 (centres unmarked) [Compound 52],,
0.023 µM,0.0113 µM,0.0186 µM,CNCCN(C)Cc1c[nH]nc1-c1ccc(OCCOc2ccc(OCCC3CCOCC3)cc2)cc1 [Compound 55],,
0.062 µM,0.0147 µM,0.031 µM,CNCCN(C)Cc1c[nH]nc1-c1ccc(NC(C)c2ccncc2)nc1 (centres unmarked) [Compound 67],,
,,,CNCCN(C)Cc1c[nH]nc1-c1cc(OC(CO)CC(C)C)cc(C(F)(F)F)c1 (centres unmarked) [Compound 73],2102 nM,IC50 (human PRMT8; read-out: PRMT8 IC50): 0.0438 µM; IC50 (human PRMT6; read-out: PRMT6 IC50): 1.9 µM
0.0871 µM,0.0163 µM,0.254 µM,CNCCN(C)Cc1c[nH]nc1-c1cc(OC2CCCC2)cc(C(F)(F)F)c1 [Compound 76],,
0.0599 µM,0.03 µM,0.00465 µM,CNCCN(C)Cc1c[nH]nc1-c1ccc(OC2CC(OCCC3CCCCC3)C2)cc1 (centres unmarked) [Compound 100],,
0.085 µM,0.0355 µM,0.066 µM,CNCCN(C)Cc1c[nH]nc1-c1cc(F)c(OC(CO)CO)c(C(F)(F)F)c1 [Compound 107],,
,0.0364 µM,0.143 µM,CNCCN(C)Cc1ccnn1[C@H]1CC[C@@H](COC)CC1 [Compound 110],1204 nM,
,0.0373 µM,0.0278 µM,CNCCN(C)Cc1c[nH]nc1-c1ccc(OCCOc2ccnnc2)cc1 [Compound 112],3994 nM,
0.243 µM,0.0374 µM,0.105 µM,CCN(Cc1ccncc1)c1ccc(-c2n[nH]cc2CN(C)CCNC)cn1 [Compound 113],,
0.563 µM,0.0391 µM,1.82 µM,COCCCOc1cc(-c2n[nH]cc2CN(C)CCN)cc(C(F)(F)F)c1Cl [Compound 115],,
,0.0417 µM,0.272 µM,CNCCN(C)Cc1c[nH]nc1-c1ccc(N(C)CC2CCOCC2)nc1 [Compound 120],4389 nM,
,0.0492 µM,0.0182 µM,CNCCN(C)Cc1c[nH]nc1-c1ccc(OC2CC(OCC(C)C)C2)cc1 (centres unmarked) [Compound 131],14756 nM,
0.223 µM,0.119 µM,,CNCCN(C)Cc1cn[nH]c1-c1ccc(OC2CC(OCCC3CCOCC3)C2)cc1 (centres unmarked) [Compound 145],,"IC50 (human PRMT6; PRMT6 IC50 (uM), peptide substrate, 3H-SAM Flashplate assay): 0.0101 µM"
,,,CNCCN(C)Cc1c[nH]nc1-c1ccc(OC2CC(OCCC3CCCCC3)C2)cc1 (centres unmarked) [Compound 150],>20000 nM,

SMILES,IC50 (human PRMT8; PRMT8 IC50 (uM)),IC50 (human PRMT1; read-out: PRMT1 IC50),IC50 (human PRMT6; [2]),ICW EC30 [1],other results
CNCCN(C)Cc1c[nH]nc1-c1cc(Cl)c(OCC(C)C)c(Cl)c1 [Compound 1],0.0173 µM,0.00351 µM,,380 nM,IC50 (human PRMT6; PRMT6 IC50 (uM)): 0.0104 µM
"CNCCN(C)Cc1c[nH]nc1-c1ccc(O[C@H]2C[C@H](OCCC3CCOCC3)C2)cc1 [Compound 155, N1,N2-dimethyl-N1-((3-(4-(3-(2-(tetrahydro-2H-pyran-4-yl)ethoxy)cyclobutoxy)phenyl)-1H-pyrazol-4-yl)methyl)ethane-1,2-diamine bis(2,2,2-trifluoroacetate)]",,0.119 µM,0.0101 µM,,IC50 (human PRMT8; read-out: PRMT8 IC50): 0.223 µM
